Data as given in patent US6537754B1, “Association of kinesin with sensitivity to chemotherapeutic drugs” (Board of Trustees of the University of Illinois, priority 1990, dated 2003).
Starred links: 1 amine or outer side, 2 acyl side, 3 side chain; linkers in the order of their positions; H or OH if unused. Positions of bridges follow the written chain, without caps; N, C: chain ends. Non-standard residues stand in square brackets, D forms with d. Residues, ends and D or L forms follow the SMILES beside them. Chains are numbered I, II in the order given. Actinocin(9to1) = Cc1c2oc3c(C)ccc(C(=O)[*:1])c3nc-2c(C(=O)[*:2])c(N)c1=O; NMeV = CN[C@H](C(=O)O)C(C)C; Sar = CNCC(=O)O

Legend:
NIH 3T3 cells [1] = assay: long-term growth inhibition assays (cytostatic and cytotoxic effects), cells carrying anti-khcs GSE vs control; format: cell-based, mouse; settings: for resistance or sensitivity of GSE-carrying cells to the drug, long-term assay: four days in drug, then two or six days without drug, anti-khcs cells vs control; for sensitivity of anti-khcs GSE cells to the drug (surviving cells as percentage of growth without drug): 2x10^4 cells per dish, five days in drug, FIGS. 12A and 12B
Procedure: Cells were incubated with the drugs for 4 days, followed by 2 or […] in drug-free media, as indicated. Cell growth, presented in arbitrary units, was evaluated by methylene blue staining.
To further characterize the nature of drug resistance conferred by anti-khcs, the above-described short-term growth inhibition assays were followed by long-term growth inhibition assays which measured both the cytostatic and the cytotoxic effects of different drugs. These assays were carried out by incubating the cells for four days in the presence of the drugs, followed by either two or six days in the absence of the drug, to allow for programmed cell death, which is frequently associated with recovery from drug-induced inhibition (Kung et al., 1990, Cancer Res. 50: 7307-7317).
Thus, in the experiment shown in FIGS. 12A and 12B, NIH 3T3 cells carrying the anti-khcs GSE and control cells without the GSE were plated at a density of 2×10^4 per culture dish and grown for five days in concentrations of either colchicine or vinblastine. The cells were then fixed and stained, and the number of surviving cells determined and shown as a percentage of cell growth in the absence of drug.

NIH 3T3 cells [2] = assay: short-term (4-day) growth inhibition assay, methylene blue staining, cells carrying anti-khcs GSE vs insert-free vector control; format: cell-based, mouse; settings: NIH 3T3 infected with anti-khcs virus vs insert-free vector; 4 days drug exposure
Procedure: Drug concentrations are given in ng/mL.
A 1:1 mixture of ecotropic and amphotropic packaging cells was transfected with retroviral vector pLNCX carrying the anti-khcs GSE using a standard calcium phosphate procedure. […] This virus-containing supernatant was used to infect NIH 3T3 cells, 10 times with 12 hour intervals. Control cells were infected in parallel with the insert-free vector virus obtained by the same procedure. […] DNA from the infected cells was analyzyed by Southern blot hybridization with a virus-specific probe.
The infected cell population described in Example 7 were analyzed for resistance to several anticancer drugs by a growth inhibition assay. For this assay, 10^4 cells per well were plated in 12-well plated and exposed to increasing concentrations of different drugs for 4 days. Relative cell numbers were measured by the methylene blue staining assay (Perry et al., 1992, Mutation Res. 286: 189-197). […] All of these drugs are known to induce DNA damage, albeit by different mechanism.

NIH 3T3 cells [3] = assay: dynamics of cell growth during and after drug treatment, anti-khcs GSE cells vs control; format: cell-based, mouse; settings: for effect of the drug in continuous presence / cell death after removal of the drug: 250 ng/mL etoposide, 20 ng/mL camptothecin, 40 ng/mL colchicine; for effect of anti-khcs GSE on the growth-inhibitory effect of the drug: 5 or 11 days continuous exposure, anti-khcs cells vs control; for cell death after removal of the drug: control cells; for cell death after removal of the drug / effect of anti-khcs GSE on cell death after release from the drug: drug removed after 5 days; for overall change in drug resistance conferred by anti-khcs GSE, release vs continuous exposure: long-term, 11 days
Procedure: Cell growth was measured as described for FIGS. 12A and 12B. Cells were plated and one day later (indicated by the first arrow) the indicated drugs were added at concentrations as described. Four days later (indicated by the second arrow), the drugs were removed from some of the plates. Solid lines indicate cell growth in the continuous presence of the drug, and broken lines indicate cell growth after removal of the drug.
In these experiments (shown in FIGS. 13A through 13D), NIH 3T3 cells were treated with the corresponding drugs for 5 days, and then incubated for additional 6 days either in the presence or in the absence of the drug. […] After 11 days of drug exposure the total cell number in the etoposide- or camptothecin-treated populations of control cells was a little lower than after 5 days of drug exposure, but in the colchicine-treated control cell population a slow cell growth was still detectable. In the experiments where the drug was removed after 5 days, cell growth was initially activated for all three drugs.
The expression of the anti-khcs GSE had different effects on the growth inhibition and recovery-associated cell death induced by these drugs.

NIH 3T3 cells [4] = assay: etoposide selection after retroviral transduction of GSEs; format: cell-based, mouse; settings: recloned proviral inserts in LNCX vector
Procedure: This selection was carried out directly on virus-producing packaging cells, in the expectation that cells whose resistant phenotype is caused by the GSE expression will produce virus particles carrying such a GSE. The mixture of amphotropic and ecotropic packaging cells was transfected with the cDNA library in the LNCX vector, prepared according to Example 1, and the virus was allowed to spread through the population for 9 days.
The proviral inserts contained in the etoposide-selected NIH 3T3 cells were analyzed by PCR. […] Individual PCR-amplified fragments were recloned into the LNCX vector in the same position and orientation as in the original plasmid, as illustrated in FIG. 4C. […] These GSEs wee named anti-khcs, VPA and VP9-11.

NIH 3T3 cells [5] = assay: etoposide resistance with GSE under IPTG-inducible promoter; format: cell-based, mouse; settings: 5 mM IPTG; IPTG-dependent; vs insert-free vector
Text: The components of this system include an enhancer-dependent promoter, combined in cis with multiple repeats of the bacterial lac operator, and a gene expressing LAP265, an artificial regulatory protein derived from the lac repressor and a mammalian transcriptional activator. The anti-khcs GSE was cloned into the plasmid pX6.CLN, which contains the inducible promoter used by Baim et al., supra (a gift of Dr. T. Shenk) which expresses the inserts from an enhancerless SV40 early gene promoter supplemented with 21 repeats of the lac operator sequence. The resulting plasmid, which contains no selectable markers, was co-transfected into NIH 3T3 cells together with the LNCX plasmid carrying the neo gene.

[6] = tested on: primary mouse embryo fibroblasts (MEF); assay: life span / immortalization of senescent primary fibroblasts after infection with GSE virus; format: cell-based
Procedure: The virus carrying the anti-khcs GSE was treated for the ability to increase the life span of primary mouse embryo fibroblasts (MEF). MEF were prepared from 10 day old mouse embryos by a standard trypsinization procedure and senescent cells were frozen at different passages prior to crisis. Senescent MEF, two weeks before crisis, were infected with recombinant retroviruses carrying LNCX vector either without an insert or with anti-khcs.

[7] = tested on: primary human fibroblasts; assay: life span of primary human skin fibroblasts after infection with GSE virus; format: cell-based
Procedure: Primary human fibroblasts, derived from human skin, were obtained from the Aging Cell Repository of the National Institutes of Aging. The cells were grown in DMEM with 20% fetal calf serum supplemented with twice the concentration of amino acids and vitamins normally used to supplement normal human skin fibroblast growth in culture. Cells at the fifth passage were infected with either the control pLNCX virus or the virus carrying mouse anti-khcs GSE (produced as described above in Example 3).

NIH 3T3 cells [8] = assay: growth parameters of multiply-infected cells; format: cell-based, mouse; settings: multiple integrated provirus copies; normalised after several passages
Text: A 1:1 mixture of ecotropic and amphotropic packaging cells was transfected with retroviral vector pLNCX carrying the anti-khcs GSE using a standard calcium phosphate procedure. Two weeks later, the virus titer, as measured by the formation of G418- resistance NIH 3T3 colonies, reached >10^6 infectious units per mL as a result of “ping-pong” infection (see Bodine et al., 1990, Proc. Natl. Acad. Sci. USA 87: 3738-3742). This virus-containing supernatant was used to infect NIH 3T3 cells, 10 times with 12 hour intervals. Control cells were infected in parallel with the insert-free vector virus obtained by the same procedure. […] DNA from the infected cells was analyzyed by Southern blot hybridization with a virus-specific probe.
At this stage, the cells were frozen and used for the experiments described below.

`COc1cccc2c1C(=O)c1c(O)c3c(c(O)c1C2=O)C[C@@](O)(C(=O)CO)C[C@@H]3O[C@H]1C[C@H](N)[C@H](O)[C@H](C)O1` [Adriamycin, doxorubicin] was tested. Which “resistance or sensitivity of GSE-carrying cells to the drug, long-term assay” value (“resistance or sensitivity” below) (NIH 3T3 cells [1]) did it give?
Its value is “resistant”.

Which “change in resistance to the cytostatic effects of the drug induced by anti-khcs GSE” value (NIH 3T3 cells [2]) does the source give for `Cc1c2oc3c(C)ccc(C(=O)N[C@@H]4C(=O)N[C@H](C(C)C)C(=O)N5CCC[C@H]5C(=O)N(C)CC(=O)N(C)[C@@H](C(C)C)C(=O)O[C@@H]4C)c3nc-2c(C(=O)N[C@@H]2C(=O)N[C@H](C(C)C)C(=O)N3CCC[C@H]3C(=O)N(C)CC(=O)N(C)[C@@H](C(C)C)C(=O)O[C@@H]2C)c(N)c1=O` [actinomycin D] (I: T[dV]P[Sar][NMeV] / II: T[dV]P[Sar][NMeV]; ester I:1-I:C, II:1-II:C; linker I:N-II:N via Actinocin(9to1)) here?
The value was “no increase in resistance was observed”.

Which “effect of the drug in continuous presence” value (NIH 3T3 cells [3]) does the source give for `CC[C@@]1(O)C(=O)OCc2c1cc1n(c2=O)Cc2cc3ccccc3nc2-1` [camptothecin] here?
The value was “growth inhibition but little detectable cell death”.

And the “effect of anti-khcs GSE on the growth-inhibitory effect of the drug” value (NIH 3T3 cells [3])?
Its value is “small decrease of the growth-inhibitory effect”.

And the “cell death after removal of the drug” value (NIH 3T3 cells [3])?
Its value is “extensive cell death”.

What about the “effect of anti-khcs GSE on cell death after release from the drug” value (NIH 3T3 cells [3]) of the same molecule?
The value was “slight increase in cell death”.

And the “overall change in drug resistance conferred by anti-khcs GSE, release vs continuous exposure” value (NIH 3T3 cells [3])?
The value was “no significant long-term difference”.

For `COc1cc2c(c(OC)c1OC)-c1ccc(OC)c(=O)cc1[C@@H](NC(C)=O)CC2` [colchicine], which “change in resistance to the cytostatic effects of the drug induced by anti-khcs GSE” value (NIH 3T3 cells [2]) is on record?
Its value is “no increase in resistance was observed”.

What about the “sensitivity of anti-khcs GSE cells to the drug (surviving cells as percentage of growth without drug)” value (NIH 3T3 cells [1]) of the same molecule?
The value was “hypersensitivity”.

And the “resistance or sensitivity” value (NIH 3T3 cells [1])?
The value was “hypersensitive”.

What about the “effect of the drug in continuous presence” value (NIH 3T3 cells [3]) of the same molecule?
Its value is “growth inhibition but little detectable cell death”.

And the “effect of anti-khcs GSE on the growth-inhibitory effect of the drug” value (NIH 3T3 cells [3])?
The value was “more susceptible to the growth-inhibitory effect”.

And the “cell death after removal of the drug” value (NIH 3T3 cells [3])?
Its value is “only limited cell death”.

Which “resistance or sensitivity” value (NIH 3T3 cells [1]) does the source give for `COc1cc([C@@H]2c3cc4c(cc3[C@@H](O[C@@H]3O[C@@H]5CO[C@@H](C)O[C@H]5[C@H](O)[C@H]3O)[C@H]3COC(=O)[C@H]23)OCO4)cc(OC)c1O` [etoposide] here?
The value was “resistant”.

What about the “effect of the drug in continuous presence” value (NIH 3T3 cells [3]) of the same molecule?
The value was “growth inhibition but little detectable cell death”.

And the “effect of anti-khcs GSE on the growth-inhibitory effect of the drug” value (NIH 3T3 cells [3])?
Its value is “decreased the growth-inhibitory effect of the drug to the same, relatively small extent”.

And the “cell death after removal of the drug” value (NIH 3T3 cells [3])?
The value was “extensive cell death”.

What about the “effect of anti-khcs GSE on cell death after release from the drug” value (NIH 3T3 cells [3]) of the same molecule?
The value was “decreased the amount of cell death”.

What about the “overall change in drug resistance conferred by anti-khcs GSE, release vs continuous exposure” value (NIH 3T3 cells [3]) of the same molecule?
Its value is “much more pronounced after release from the drug”.

Which results are given for `CC[C@]1(O)C[C@@H]2CN(CCc3c([nH]c4ccccc34)[C@@](C(=O)OC)(c3cc4c(cc3OC)N(C)[C@H]3[C@@](O)(C(=O)OC)[C@H](OC(C)=O)[C@]5(CC)C=CCN6CC[C@]43[C@@H]65)C2)C1` [vinblastine]?
sensitivity of anti-khcs GSE cells to the drug (surviving cells as percentage of growth without drug) (NIH 3T3 cells [1]): hypersensitivity; resistance or sensitivity of GSE-carrying cells to the drug, long-term assay (NIH 3T3 cells [1]): hypersensitive

B1: anti-khcs: genetic suppressor element encoding antisense RNA for mouse kinesin heavy chain gene khcs (SEQ.ID.No.:3), in LNCX retroviral vector (nucleic acid)
antisense: CTTGATCCCTTCTGGTTGATGCCAGAAGCTCTTCCTGATCCAGCATTTGTATCTTCAATTTCTCTACCAATTGGCTTTGTTGGTTAATCTCTTCATCCTTGTCATCAAGTTGTTTATACAATTTAGCAAGTTCTTCTTCACACTTTCTTCTTTCAGCATCGGTAAAACTACCAGCCATTCCGACTGCAGCAGCTGGTTTATCACTGGTAATAGCAATATCTTTATCCGCTGTGAAGGCTTCCAAATTAGCTTTCTCTTTGTCAAACTGCTCATCAATAGGCACTGTCTCCCCGTTACGCCAACGGTTTAGCTCGTTTTCCAGCCACT
modifications: in LNCX retroviral vector
For B1, which “ability to confer etoposide resistance after retroviral transduction” value (NIH 3T3 cells [4]) is on record?
The value was “induce etoposide resistance”.

What about the “etoposide resistance of transfectants” value (NIH 3T3 cells [5]) of the same molecule?
The value was “clearly increased etoposide resistance”.

What about the “features of neoplastic transformation in post-crisis cells” value ([6]; microscopic) of the same molecule?
The value was “no microscopically visible features of neoplastic transformation”.

And the “proportion of cells surviving the crisis” value ([6]; relative to uninfected MEF or control LNCX virus, two weeks after crisis)?
Its value is “great increase”.

What about the additional passages survived ([7]; after control cells went into crisis) of the same molecule?
Its additional passages survived is “at least five”.

What about the “growth when control cells went into crisis” value ([7]; infected at fifth passage, four passages later) of the same molecule?
The value was “continued to grow”.

What about the “growth rate and plating efficiency of freshly-obtained multiply-infected cells” value (NIH 3T3 cells [8]) of the same molecule?
Its value is “decreased growth rate and plating efficiency”.
